Common to all, as to format: cell-based
One assay concerns A2780. As to the kind of experiment: SRB assay, IMT combined with inhibitor. The note with it: A2780 (ovary); concentration series of the labelled inhibitor + fixed concentration of IMT (3S)-1-[(2R)-2-[4-(2-chloro-4-fluoro-phenyl)-2-oxo-chromen-7-yl]oxypropanoyl]piperidine-3-carboxylic acid (Table 3: 40 nM, 120 h); negative=synergistic, positive=antagonistic. The method, then:
In two studies, the ovarian cell line A2780 was tested for 72 hours with the IMT N,N-dimethyl-2-[4-(o-tolyl)-2-oxo-chromen-7-yl]oxy-propanamide (30 μM-15 nM) and the MEK inhibitor Selumetinib (30 μM-10 nM), or with the IMT 1-[2-[4-(2-chlorophenyl)-2-oxo-chromen-7-yl]oxypropanoyl]piperidine-3-sulfonamide (30 μM-15 nM) and the MEK inhibitor PD318088 (30 μM-10 nM).
(§1) Solforhodamine B assay is carried out as described in Voigt W. (2005) Sulforhodamine B Assay and Chemosensitivity. (Methods in Molecular Medicine™, vol 110. Humana Press. https://doi.org/10.1385/1-59259-869-2:039).
(§2) The determination of changes in cellular biomass was based on the Solforhodamine B assay format, carried out as described in Voigt W. (2005) Sulforhodamine B Assay and Chemosensitivity. (Methods in Molecular Medicine™, vol 110. Humana Press. https://doi.org/10.1385/1-59259-869-2:039).
(§3) All in vitro cell culture experiments were carried out under near physiological glucose concentrations (5 mM) in at least two independent replicates.
First, 30 different cell lines from 14 different tissue types were tested in the SRB assay format. The cells were examined individually for changes in growth over a period of 120 hours with dilution series of both inhibitors. Untreated cells were used as a negative control group. Subsequently, a dilution series of the respective MAPK signalling pathway SOCs was treated in combination with a fixed concentration of 40 nM (3S)-1-[(2R)-2-[4-(2-chloro-4-fluoro-phenyl)-2-oxo-chromen-7-yl]oxypropanoyl]piperidine-3-carboxylic acid.
(In general: Sulforhodamine B stains cellular protein and so reports cell mass.)

A further assay deals with A204. As to the kind of experiment: SRB assay, IMT combined with inhibitor. The note with it: A204 (muscle); concentration series of the labelled inhibitor + fixed concentration of IMT (3S)-1-[(2R)-2-[4-(2-chloro-4-fluoro-phenyl)-2-oxo-chromen-7-yl]oxypropanoyl]piperidine-3-carboxylic acid; negative=synergistic, positive=antagonistic. The method, then:
as §1, §2, §3
(§4) To establish the method described, combinations of (3S)-1-[(2R)-2-[4-(2-chloro-4-fluoro-phenyl)-2-oxo-chromen-7-yl]oxypropanoyl]piperidine-3-carboxylic acid and various PARPi were tested with regard to their effect on the cell growth of 33 tumour cell lines from different tissues, in the SRB and CTG assay format. The assay methods and protocols in cell culture and measurement followed the procedure as described in Example 1). […] This initial study was followed by validation experiments in a matrix format and in the CTG assay, as described for Example 1) (Table 6.)

For a further assay, the system named is ASPC1. As to the kind of experiment: SRB assay, IMT combined with inhibitor. The note with it: ASPC1 (pancreas); concentration series of the labelled inhibitor + fixed concentration of IMT (3S)-1-[(2R)-2-[4-(2-chloro-4-fluoro-phenyl)-2-oxo-chromen-7-yl]oxypropanoyl]piperidine-3-carboxylic acid; negative=synergistic, positive=antagonistic. The method, then: as §1, §2, §3, §4

In a further assay the test system is MCF7. Briefly: SRB assay, IMT combined with inhibitor. The note with it: MCF7 (breast); concentration series of the labelled inhibitor + fixed concentration of IMT (3S)-1-[(2R)-2-[4-(2-chloro-4-fluoro-phenyl)-2-oxo-chromen-7-yl]oxypropanoyl]piperidine-3-carboxylic acid; negative=synergistic, positive=antagonistic. As to the method: as §1, §2, §3, §4
The next assay relates to MDAMB468. Briefly: SRB assay, IMT combined with inhibitor. Conditions: MDAMB468 (breast); concentration series of the labelled inhibitor + fixed concentration of IMT (3S)-1-[(2R)-2-[4-(2-chloro-4-fluoro-phenyl)-2-oxo-chromen-7-yl]oxypropanoyl]piperidine-3-carboxylic acid; negative=synergistic, positive=antagonistic. As to the method: as §1, §2, §3, §4
The subject of assay [1] is 33 tumour cell lines from different tissues. As to the kind of experiment: SRB assay, panel of tumour cell lines. Conditions: fixed concentration of IMT (3S)-1-[(2R)-2-[4-(2-chloro-4-fluoro-phenyl)-2-oxo-chromen-7-yl]oxypropanoyl]piperidine-3-carboxylic acid against concentration series of the labelled inhibitor. The method, then:
as §1, §2, §3
To establish the method described, combinations of (3S)-1-[(2R)-2-[4-(2-chloro-4-fluoro-phenyl)-2-oxo-chromen-7-yl]oxypropanoyl]piperidine-3-carboxylic acid and various PARPi were tested with regard to their effect on the cell growth of 33 tumour cell lines from different tissues, in the SRB and CTG assay format. The assay methods and protocols in cell culture and measurement followed the procedure as described in Example 1). […] This initial study was followed by validation experiments in a matrix format and in the CTG assay, as described for Example 1) (Table 6.) […]

In another assay the test system is MDAMB231. As to the kind of experiment: SRB assay, IMT combined with inhibitor. Conditions: MDAMB231 (breast); concentration series of the labelled inhibitor + fixed concentration of IMT (3S)-1-[(2R)-2-[4-(2-chloro-4-fluoro-phenyl)-2-oxo-chromen-7-yl]oxypropanoyl]piperidine-3-carboxylic acid; negative=synergistic, positive=antagonistic. The method, then: as §1, §2, §3, §4

Take `COc1c(OCCCN2CCOCC2)ccc2c1N=C(NC(=O)c1cnc(N)nc1)N1CCN=C21` [BAY 80-6946, 2-Amino-N-{7-methoxy-8-[3-(4-morpholinyl)propoxy]-2,3-dihydroimidazo[1,2-c]quinazolin-5-yl}-5-pyrimidinecarboxamide]: the “difference between the calculated combinatorial index (BLISS) and the observed combinatorial effect” value in the assay with A2780 was 0.0466; with A204, −0.0098; with ASPC1, 0.0488; in the assay with MCF7 it was 0.0155; in the assay with MDAMB468, 0.0183. In addition, the “combinatorial effect in the majority of the cell lines and tissue types examined” value in assay [1] was “clear synergistic effect”.
Turning to `C[C@H](Nc1ncnc2nc[nH]c12)c1cc2cccc(Cl)c2c(=O)n1-c1ccccc1` [Duvelisib], the “difference between the calculated combinatorial index (BLISS) and the observed combinatorial effect” value in the assay with A2780 is 0.0081; in the assay on A204, −0.0217; with ASPC1, 0.0753; in the assay on MCF7 it was 0.0256; in the assay with MDAMB468 it was −0.0285.
Turning to `Cn1cnc2c(F)c(Nc3ccc(Br)cc3Cl)c(C(=O)NOCCO)cc21` [Selumetinib], the “difference between the calculated combinatorial index (BLISS) and the observed combinatorial effect” value in the assay with A2780 is given as −0.0046.
Still for that read-out and setting: the figure for `O=C(c1ccc(F)c(F)c1Nc1ccc(I)cc1F)N1CC(O)([C@@H]2CCCCN2)C1` [Cobimetinib] is −0.0105.
Still for that read-out and setting: the figure for `CC(C)Nc1cc(-c2c[nH]c(C(=O)N[C@H](CO)c3cccc(Cl)c3)c2)c(Cl)cn1` [Ulixertinib] is −0.0025; for `Cc1cc(C(=O)NOCCO)c(Nc2ccc(I)cc2F)n(C)c1=O` [AZD8330, 2-((2-Fluoro-4-iodophenyl)amino)-N-(2-hydroxyethoxy)-1,5-dimethyl-6-oxo-1,6-dihydropyridine-3-carboxamide] it is 0.0118.
Regarding `CS(=O)(=O)N1CCN(Cc2cc3nc(-c4cccc5[nH]ncc45)nc(N4CCOCC4)c3s2)CC1` [GDC-0941, 2-(1H-Indazol-4-yl)-6-[[4-(methylsulfonyl)-1-piperazinyl]methyl]-4-(4-morpholinyl)thieno[3,2-d]pyrimidine], the “difference between the calculated combinatorial index (BLISS) and the observed combinatorial effect” value in the assay with A2780 is on record as 0.0077; in the assay with A204, 0.3066; with ASPC1, 0.1003; with MCF7, 0.0454; in the assay with MDAMB468 it was −0.0509.
Take `O=C(NOC[C@H](O)CO)c1ccc(F)c(F)c1Nc1ccc(I)cc1F` [PD 0325901, (R)—N-(2,3-dihydroxypropoxy)-3,4-difluoro-2-((2-fluoro-4-iodophenyl)amino)benzamide]: the “difference between the calculated combinatorial index (BLISS) and the observed combinatorial effect” value in the assay with A2780 was −0.0318.
On the same count and under the same terms, the same measure for `CC(=O)Nc1cccc(-n2c(=O)n(C3CC3)c(=O)c3c(Nc4ccc(I)cc4F)n(C)c(=O)c(C)c32)c1` [Trametinib]: 0.0305.
Take `CC(C)(C)c1nc(-c2cccc(NS(=O)(=O)c3c(F)cccc3F)c2F)c(-c2ccnc(N)n2)s1` [Dabrafenib]: the “difference between the calculated combinatorial index (BLISS) and the observed combinatorial effect” value with A2780 is on record as 0.0281.
With `O=C(c1cc(Cc2n[nH]c(=O)c3ccccc23)ccc1F)N1CCN(C(=O)C2CC2)CC1` [Olaparib], the “difference between the calculated combinatorial index (BLISS) and the observed combinatorial effect” value with A2780 was −0.0656; in the assay with A204 it was −0.0329; in the assay on ASPC1, −0.0583; in the assay on MCF7, 0.0602; in the assay on MDAMB231 it was −0.0488; with MDAMB468 it was −0.0262. For the same compound, the “combinatorial effect in the majority of the cell lines and tissue types examined” value in assay [1] was “clear synergistic effect”.

These data come from patent US20240252454A1, “COMPOSITION COMPRISING AN INHIBITOR OF MITOCHONDRIAL TRANSCRIPTION” (LEAD DISCOVERY CENTER GMBH, priority 2021, published 2024).
